Like-named read-outs stand apart in the source and are kept apart here.
What was measured:
[1] = tested on: Eimeria tenella, E. maxima and E. acervulina; assay: Efficacy of ponazuril on artificially induced mixed infection of chickens, cage housing; format: in vivo
Description: Groups each of 44 birds (4 replicates per treatment of 11 birds in each case) were formed and, on day 14, infected with sporulated oocysts. Ponazuril was administered each day on day 10-24 or 17-24. Three dosages in the feed were used in both treatment periods: 5 ppm, 10 ppm and 20 ppm. The result of the treatment was determined by various clinical and parasitological parameters, including the mortality caused by the coccidiosis and the oocyst excretion in the faeces.

[2] = tested on: Eimeria spp. (principal species E. ovinoidalis and E. crandallis); assay: Field trial, treatment of natural coccidiosis infections of grazing lambs; format: in vivo, Sheep; settings: 5% w/v suspension as drench on day 7; toltrazuril 20 mg/kg, ponazuril 10 and 20 mg/kg; low infection pressure
Description: B. Field Trial of the Efficacy of Ponazuril Compared with Toltrazuril for the Treatment of Natural Infections of Grazing Lambs with Coccidiosis:
The aim of the trials was to compare toltrazuril and ponazuril for efficacy on natural infections with pathogens of the Eimeria family.
The active ingredients were compared in three consecutive experiments: • Experiment 1: untreated control—toltrazuril 20 mg/kg—ponazuril 20 mg/kg • Experiment 2: untreated control—ponazuril 20 mg/kg • Experiment 3: untreated control—toltrazuril 20 mg/kg—ponazuril 10 mg/kg.
The oocyst excretion and the consistency of the faeces were used as main parameters. The weight of the stock was likewise checked occasionally.

[3] = Acute oral toxicity (LD50 rat, oral); format: in vivo; settings: for NOEL: LD50 rat, oral investigation; for LD50 rat, oral: printed in column Dosage (NOEL)
Description: (§1) The following toxicity data were determined in accordance with OECD/GLP guidelines, in particular OECD 414, 401 and 408. The investigations of the teratogenicity of the compounds was carried out in accordance with the US guidelines—“Teratogenicity study”, Guidelines for Registering Pesticides in the U.S.A., U.S. Environmental Protection Agency, Hazard Evaluation: Human and 10 Domestic Animals. U.S. Federal Register, Vol. 43, paragraph 163.83-3, adopted November 1982.

[4] = in vivo
Description: as §1

Isospora suis [5] = settings: experimentally infected piglets; cited from earlier work
Isospora suis [6] = settings: coccidiosis (Isospora suis) in pigs; cited from earlier work

SMILES | efficacy (oocyst excretion, consistency of the faeces) [2] | NOEL [3] | LD50 rat, oral [3] | NOEL ([4]; dog) | NOEL ([4]; rabbit) | NOEL ([4]; rat) | NOEL ([4]; rat, 90 days) | prevention of disease (Isospora suis [5]) | further results
Cc1cc(-n2c(=O)[nH]c(=O)n(C)c2=O)ccc1Oc1ccc(S(=O)(=O)C(F)(F)F)cc1 [ponazuril] | completely effective | 5000 mg/kg of body weight | >5000 mg/kg of body weight | 8.3 mg/kg of body weight | 30 mg/kg of body weight | 90 mg/kg of body weight | 11.2 mg/kg of body weight | – | control of the infection ([1]; 5, 10 and 20 ppm in the feed, daily on day 10-24 or 17-24, infection day 14): possible to control the infection with all dosages and treatment schedules; parasitological findings (oocyst excretion and number of lesions) ([1]; early start of the treatment): reduced the parasitological findings significantly; technical parameters (body weight gain and feed conversion) ([1]; early start of the treatment): improved the technical parameters; dosage with best results ([1]; highest dosage, 20 mg of ponazuril in the feed (approx. 3.5 mg/kg of body weight and day)): best results
CCCc1ncc(C[n+]2ccccc2C)c(N)n1 [amprolium] | – | – | – | – | – | – | – | not possible to prevent disease | –
Cc1cc(-n2c(=O)[nH]c(=O)n(C)c2=O)ccc1Oc1ccc(SC(F)(F)F)cc1 [toltrazuril] | completely effective | <1000 mg/kg of body weight | 1600-5000 mg/kg mg/kg of body weight | 1.5 mg/kg of body weight | 2.0 mg/kg of body weight | 1.0 mg/kg of body weight | 1.1 mg/kg of body weight | – | suitability for treating coccidiosis (Isospora suis [6]): suitable for treating coccidiosis
CC[C@@]1([C@@H]2O[C@@H]([C@H]3O[C@@](O)(CO)[C@H](C)C[C@@H]3C)C[C@@H]2C)CC[C@H]([C@]2(C)CC[C@]3(C[C@H](O)[C@@H](C)[C@@H]([C@@H](C)[C@@H](OC)[C@H](C)C(=O)O)O3)O2)O1 [monensin] | – | – | – | – | – | – | – | not possible to prevent disease | –
O=C1OCCN1/N=C/c1ccc([N+](=O)[O-])o1 [furazolidone] | – | – | – | – | – | – | – | not possible to prevent disease | –

— patent US7915257B2, “Use of triazinetrione sulfones for combating coccidiosis” (Bayer Animal Health GmbH, priority 2000, dated 2011)
